The subject of assay [1] is HAP1 MTAP-deleted cell line. Briefly: Viability assay, MTAP-deleted cell line. Format: cell-based. The note with it: Homo sapiens, read-out: HAP1 MTAP deleted viability. The source says:
Table 1 additionally indicates IC50 values in a viability assay for the MTAP-deleted cell line (column 10), indicating the effect of treatment with compound on cell survival.

For assay [2], the system named is HAP1 MTAP-deleted cell line. Briefly: SDMA in-cell western assay, HAP1 MTAP-deleted. In kind it is cell-based. As to conditions: for IC50: Homo sapiens, HAP1, SDMA in-cell western, HAP1 MTAP-deleted; for MTAP intact/deleted ratio: SDMA in-cell western. An outline of the steps: (§1)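 Isogenic HAP1 pair: the MTAP-intact line expresses endogenous MTAP, and the deleted line is MTAP-null. Symmetric dimethylarginine was detected by in-cell western and IC50 values derived for each line.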

Assay [3] relates to HAP1 MTAP-intact cell line. Description: SDMA in-cell western assay, HAP1 MTAP-intact. In kind it is cell-based. As to conditions: Homo sapiens, HAP1, SDMA in-cell western, HAP1 MTAP-intact; read-out: MTAP HAP1 intact IC50. An outline of the steps: as §1
Assay [4] deals with T1, PRMT5 (Homo sapiens, UniProt O14744).
T1 construct: purchased Viva (custom protein)
T1 sequence (O14744 whole entry): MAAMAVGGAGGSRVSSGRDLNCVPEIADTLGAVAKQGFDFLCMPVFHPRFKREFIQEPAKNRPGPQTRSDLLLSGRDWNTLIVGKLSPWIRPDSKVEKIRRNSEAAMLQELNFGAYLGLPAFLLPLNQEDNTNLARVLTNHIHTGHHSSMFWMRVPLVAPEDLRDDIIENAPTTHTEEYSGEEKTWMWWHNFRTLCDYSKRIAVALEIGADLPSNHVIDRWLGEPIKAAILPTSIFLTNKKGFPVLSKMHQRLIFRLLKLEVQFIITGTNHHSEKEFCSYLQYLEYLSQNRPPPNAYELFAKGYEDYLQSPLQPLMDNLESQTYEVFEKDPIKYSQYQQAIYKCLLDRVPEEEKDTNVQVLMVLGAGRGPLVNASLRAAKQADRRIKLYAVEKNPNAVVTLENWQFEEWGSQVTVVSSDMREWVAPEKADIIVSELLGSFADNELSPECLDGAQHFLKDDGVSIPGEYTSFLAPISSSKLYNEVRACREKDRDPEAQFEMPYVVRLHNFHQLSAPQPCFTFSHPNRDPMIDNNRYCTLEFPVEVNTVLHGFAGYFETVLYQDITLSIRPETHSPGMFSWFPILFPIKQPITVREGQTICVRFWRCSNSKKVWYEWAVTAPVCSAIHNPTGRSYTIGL
T1 sequence (Q9BQA1 whole entry partner): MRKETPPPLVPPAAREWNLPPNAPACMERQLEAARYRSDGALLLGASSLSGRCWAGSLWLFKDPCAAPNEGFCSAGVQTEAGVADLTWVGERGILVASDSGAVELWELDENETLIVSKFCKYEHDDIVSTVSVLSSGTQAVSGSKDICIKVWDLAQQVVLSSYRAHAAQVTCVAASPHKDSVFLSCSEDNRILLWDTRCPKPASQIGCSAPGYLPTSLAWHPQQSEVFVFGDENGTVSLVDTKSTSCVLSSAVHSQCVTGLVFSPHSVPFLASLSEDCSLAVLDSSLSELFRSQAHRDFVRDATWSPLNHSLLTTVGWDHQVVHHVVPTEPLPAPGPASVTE
Briefly: PRMT5 biochemical IC50 assay with SAM as cofactor. The note with it: PRMT5, SAM as cofactor; read-out: SAM IC50.

In assay [5] the target is T1, PRMT5. Description: PRMT5 biochemical IC50 assay with no cofactor. As to conditions: PRMT5, no cofactor. The source says: Table 1 indicates IC50 values (μM) against PRMT5 for exemplary compounds in the presence of SAM as cofactor, with no cofactor, and with MTA as cofactor, respectively (columns 4-6). […] Ki values can be calculated from the IC50 values as described in the Examples section. As detailed in the Examples section, for the assay performed in the presence of SAM, IC50=Ki×1.5 (Ki=IC50/1.5).

In assay [6] the target is T1, PRMT5. Description: PRMT5 biochemical IC50 assay with MTA as cofactor. The note with it: PRMT5, MTA as cofactor; read-out: MTA IC50.
[7] abbreviates: HAP1, viability, HAP1 MTAP-deleted cell line.
Where [8] appears, read: read-out: HAP 1 MTAP deleted IC50.
The mark [9] stands for this setting: IC50 ratio HAP1 MTAP-intact / HAP1 MTAP-deleted.
Where [10] appears, read: read-out: No Cofactor/ rel IC50.
The mark [11] stands for this setting: HAP1, viability assay, MTAP-deleted cell line.
[12] abbreviates: HAP1, viability assay, HAP1 MTAP-deleted.
[13] abbreviates: read-out: HAP1 MTAP deleted IC50.
Where [14] appears, read: IC50 ratio HAP1 MTAP-intact vs HAP1 MTAP-deleted.

Molecules are shown by their SMILES. Where only a bound is given, the exact number is not on record here.

As for `C[C@@H]1CC[C@@H](c2ccc3sc(CCN(C)C)nc3c2)N(C(=O)C(=O)Nc2cncc(C(N)=O)c2)C1` (racemic) [Compound 1355, 5-(2-(2-(2-(2-(dimethylamino)ethyl)benzo[d]thiazol-5-yl)-5-methylpiperidin-1-yl)-2-oxoacetamido)nicotinamide], the IC50 in assay [1] (setting [7]) is less than 1000 nM; in assay [2] (setting [8]), less than 100 nM; in assay [3] it was 100 to 1000 nM; at PRMT5 [4], 50 to 500 nM; at PRMT5 [5] (setting [10]), 50 to 500 nM; on PRMT5 [6], less than 50 nM. Further, in assay [2] (setting [9]), the “MTAP intact/deleted ratio” value is “A (an IC50 ratio greater than or equal to 10 fold)”.
As to `Cc1cc(C)n(-c2cccc([C@@H]3CC[C@@H](C)CN3C(=O)C(=O)Nc3cncc(C(N)=O)c3)c2)n1` (racemic) [Compound 153, rac-5-{2-[(2R,5S)-2-[3-(3,5-Dimethyl-1H-pyrazol-1-yl)phenyl]-5-methylpiperidin-1-yl]-2-oxoacetamido}pyridine-3-carboxamide], the IC50 in assay [1] (setting [11]) is 1000 to 10000 nM; in assay [2] (setting [8]), less than 100 nM; in assay [3], more than 1000 nM; on PRMT5 [4] it was 50 to 500 nM; on PRMT5 [5] (setting [10]), 50 to 500 nM; at PRMT5 [6] it was 50 to 500 nM. Also, the “MTAP intact/deleted ratio” value in assay [2] (setting [9]) is recorded as “A (an IC50 ratio greater than or equal to 10 fold)”.
Regarding `Cc1ccc([C@@H]2CC[C@H](C)CN2C(=O)C(=O)Nc2cncc(C(N)=O)c2)nc1` (racemic) [Compound 880, 5-[[2-[(2R,5R)-5-Methyl-2-(5-methyl-2-pyridyl)-1-piperidyl]-2-oxo-acetyl]amino]pyridine-3-carboxamide], the IC50 in assay [1] (setting [12]) is more than 10000 nM; in assay [2] (setting [13]), 100 to 1000 nM; in assay [3], more than 1000 nM; on PRMT5 [4], more than 500 nM; at PRMT5 [5] (read-out: No Cofactor/rel IC50), more than 500 nM; on PRMT5 [6], 50 to 500 nM. Besides, in assay [2] (setting [9]), the MTAP intact/deleted ratio entry was “A (an IC50 ratio greater than or equal to 10 fold)”.
For the molecule `C[C@@H]1CC[C@@H](c2ccc(C#N)cc2)N(C(=O)C(=O)Nc2cncc(C(N)=O)c2)C1` (racemic) [Compound 246, rac-5-{2-[(2R,5S)-2-(4-Cyanophenyl)-5-methylpiperidin-1-yl]-2-oxoacetamido}pyridine-3-carboxamide], the IC50 in assay [1] (setting [11]) is 1000 to 10000 nM; in assay [2] (setting [13]) it was 100 to 1000 nM; in assay [3] it was more than 1000 nM; on PRMT5 [4] it was 50 to 500 nM; on PRMT5 [5] (read-out: No Cofactor/rel IC50), 50 to 500 nM; at PRMT5 [6] it was less than 50 nM. Further, the MTAP intact/deleted ratio result in assay [2] (setting [9]) is listed as “A (an IC50 ratio greater than or equal to 10 fold)”.
With `CCc1cc(NC(=O)C(=O)N2[C@@H](C)CCC[C@H]2c2ccc3sc(C4CCN(C)CC4)nc3c2)cnc1N` (single isomer, unassigned) [Compound 1173], the IC50 was less than 1000 nM in assay [1] (setting [11]); less than 100 nM in assay [2] (setting [13]); less than 100 nM in assay [3]; 50 to 500 nM at PRMT5 [4]; less than 50 nM on PRMT5 [5] (read-out: No Cofactor/rel IC50); less than 50 nM at PRMT5 [6]. Moreover, the MTAP intact/deleted ratio entry in assay [2] (setting [14]) is given as “A (an IC50 ratio greater than or equal to 10 fold)”.
For the molecule `C[C@H]1CC[C@H](c2cc3cn[nH]c3cc2F)N(C(=O)C(=O)Nc2cncc(C(N)=O)c2)C1` (single isomer, unassigned) [Compound 553], the IC50 is 1000 to 10000 nM in assay [1] (HAP1, viability IC50, MTAP-deleted cell line); 100 to 1000 nM in assay [2] (setting [8]); more than 1000 nM in assay [3]; 50 to 500 nM on PRMT5 [4]; 50 to 500 nM at PRMT5 [5] (read-out: No Cofactor/rel IC50); less than 50 nM on PRMT5 [6]. In addition, in assay [2] (setting [9]), the MTAP intact/deleted ratio result was “A (an IC50 ratio greater than or equal to 10 fold)”.
`C[C@@H]1CC[C@@H](c2cccnc2)N(C(=O)C(=O)Nc2cncc(C(N)=O)c2)C1` (single isomer, unassigned) [Compound 106]: the IC50 was 1000 to 10000 nM in assay [1] (setting [11]); less than 100 nM in assay [2] (setting [8]); more than 1000 nM in assay [3]; less than 50 nM on PRMT5 [4]; 50 to 500 nM at PRMT5 [5] (setting [10]); less than 50 nM on PRMT5 [6]. The “MTAP intact/deleted ratio” value in assay [2] (setting [9]) is reported as “A (an IC50 ratio greater than or equal to 10 fold)”.
As to `CCc1cc(NC(=O)C(=O)N2C[C@H](C)CC[C@H]2c2cc(Cl)cc(Cl)c2)cnc1N` (single isomer, unassigned) [Compound 966], the IC50 in assay [1] (setting [11]) was more than 10000 nM; in assay [2] (setting [8]), more than 1000 nM; in assay [3], more than 1000 nM; at PRMT5 [4] it was more than 500 nM; at PRMT5 [5] (read-out: No Cofactor/rel IC50), more than 500 nM; on PRMT5 [6], 50 to 500 nM. Besides, the MTAP intact/deleted ratio entry in assay [2] (setting [9]) is recorded as “B (an IC50 ratio greater than or equal to 3 fold but lower than 10 fold)”.
With `CCc1cc(NC(=O)C(=O)N2C[C@@H](C)CC[C@@H]2c2ccc(N3CCOC4(CN(C)C4)C3)cc2)cnc1N` (racemic) [Compound 1329, rac-N-(6-Amino-5-ethyl-3-pyridyl)-2-[(2R,5S)-5-methyl-2-[4-(2-methyl-5-oxa-2,8-diazaspiro[3.5]nonan-8-yl)phenyl]-1-piperidyl]-2-oxo-acetamide], the IC50 in assay [1] (setting [7]) is less than 1000 nM; in assay [2] (setting [8]) it was less than 100 nM; in assay [3], more than 1000 nM; on PRMT5 [4], 50 to 500 nM; at PRMT5 [5] (setting [10]), 50 to 500 nM; at PRMT5 [6], 50 to 500 nM.
Regarding `NC(=O)c1cncc(NC(=O)C(=O)N2CCCC3(CCSCC3)C2)c1` [Compound 166, 5-(2-Oxo-2-{9-thia-2-azaspiro[5.5]undecan-2-yl}acetamido)pyridine-3-carboxamide], the IC50 is more than 10000 nM in assay [1] (setting [11]); more than 1000 nM in assay [2] (setting [8]); more than 1000 nM in assay [3]; more than 500 nM on PRMT5 [4]; more than 500 nM at PRMT5 [5] (setting [10]); 50 to 500 nM on PRMT5 [6]. For the same molecule, the “MTAP intact/deleted ratio” value in assay [2] (setting [9]) is “C (an IC50 ratio of less than 3 fold)”.
Turning to `C[C@@H]1CC[C@@H](c2ccc3[nH]c(=O)ccc3c2)N(C(=O)C(=O)Nc2cncc(C(N)=O)c2)C1` (single isomer, unassigned) [Compound 804], the IC50 in assay [1] (setting [12]) is more than 10000 nM; in assay [2] (setting [13]), more than 1000 nM; in assay [3] it was more than 1000 nM; at PRMT5 [4], more than 500 nM; on PRMT5 [5] (read-out: No Cofactor/rel IC50), more than 500 nM; at PRMT5 [6], more than 500 nM. The MTAP intact/deleted ratio entry in assay [2] (setting [9]) is “C (an IC50 ratio of less than 3 fold)”.
For `CCc1cc(NC(=O)C(=O)N2C[C@H](C)CC[C@H]2c2ccc(N3CCN(CC)CC3)cc2)cnc1N` (single isomer, unassigned) [Compound 1097], the IC50 is less than 1000 nM in assay [1] (setting [11]); less than 100 nM in assay [2] (setting [13]); 100 to 1000 nM in assay [3]; 50 to 500 nM on PRMT5 [4]; less than 50 nM on PRMT5 [5] (read-out: No Cofactor/rel IC50); less than 50 nM at PRMT5 [6]. Further, the MTAP intact/deleted ratio entry in assay [2] (setting [14]) was “A (an IC50 ratio greater than or equal to 10 fold)”.
`C[C@@H]1[C@@H](C)CC[C@H](c2ccccc2)N1C(=O)C(=O)Nc1cncc(C(N)=O)c1` (single isomer, unassigned) [Compound 483]: the IC50 in assay [1] (setting [11]) is more than 10000 nM; in assay [2] (setting [13]), more than 1000 nM; in assay [3], more than 1000 nM; at PRMT5 [4], more than 500 nM; at PRMT5 [5] (read-out: No Cofactor/rel IC50), more than 500 nM; on PRMT5 [6], more than 500 nM. In assay [2] (setting [9]), the MTAP intact/deleted ratio entry was “C (an IC50 ratio of less than 3 fold)”.
Take `COc1ncc(NC(=O)C(=O)N2C[C@@H](C)CC[C@@H]2c2cccc3[nH]ncc23)cc1C(N)=O` (single isomer, unassigned) [Compound 918]: the IC50 in assay [1] (setting [11]) was less than 1000 nM; in assay [2] (setting [8]) it was less than 100 nM; in assay [3], more than 1000 nM; at PRMT5 [4], 50 to 500 nM; on PRMT5 [5] (read-out: No Cofactor/rel IC50), 50 to 500 nM; at PRMT5 [6], less than 50 nM. Further, the MTAP intact/deleted ratio entry in assay [2] (setting [9]) is “A (an IC50 ratio greater than or equal to 10 fold)”.

Values taken from patent publication US11999727B2 (Tango Therapeutics, Inc., priority 2020, dated 2024).
